These results are taken from patent publication US12275685B2, “Oligo-benzamide analogs and their use in cancer treatment” (Board of Regents, The University of Texas System, priority 2018, dated 2025).

For orientation: IC50 means the concentration at which inhibition is half-maximal.

One data set has as its system tumor growth. Kind of data set: Animal studies with TK41. The data set is classed as in vivo. Here is the method:
FIGS. 4A-4C show the effect of TK41 on estrogen receptor-positive (ER+ve) tumor growth. ZR75 (ER+ve; n=18) xenografts were established in nude mice and treated with either vehicle (circle markers) or 10 mg/kg/day TK41 (square markers) administered as an oral gavage in Captisol®. Comparison of mice body weights is shown in bar graphs (FIG. 4C). *p<0.05; **** p<0.001.
FIGS. 5A-5C show the effect of TK41 on triple negative breast cancer xenograft tumors. MDA-MB-231 (TNBC; n=10) xenografts were established in nude mice and treated with either vehicle (circle markers) or 10 mg/kg/day TK41 (square markers) administered as an oral gavage in Captisol®. Comparison of mice body weights is shown in bar graphs (FIG. 5A). Photographs of individual tumors at necropsy supports the effect of TK41 on TNBC. *p<0.05; **** p<0.001.
TNBC is difficult to be treated and currently there are no good drugs available in the market.

The subject of data set [1] is SUM-159 cells with LIPA KO and reconstitution of LIPA. Kind of data set: Dose response in SUM-159 LIPA KO cells reconstituted with LIPA constructs. Type of data set: cell-based. An excerpt:
FIGS. 39A-N: (FIGS. 39A-E) Predicted binding mode of ERX-41 (colored in green) on the human lysosomal acid lipase (LAL, PDB code: 6V7N, LXXLL (SEQ ID NO: 1) domain colored in orange). (FIG. 39F) PDB structure of LAL protein showing relative positions of the catalytic domain (with H274Y MT) and the LXXLL (SEQ ID NO: 1) domain (L242P MT). (FIG. 39G) Evaluation of the effect of ERX-41 and lalistat (known lipase inhibitor) on lipase activity of parental SUM-159 (WT) and SUM-159 cells with LIPA KO. (FIG. 39H) Evaluation of basal lipase activity in parental SUM-159 (WT), SUM-159 cells with LIPA KO (KO), SUM-159 cells with LIPA KO and with reconstitution of either WT LIPA (KO+WT), H274Y MT-LIPA (KO+H274Y), DLXXLL (SEQ ID NO: 2) MT-LIPA (KO+DLXXLL (SEQ ID NO: 2)) or L242P MT-LIPA (KO+L242P). Protein expression of LAL and control vinculin in these cells are shown below (FIG. 391) Cellular lysates from described SUM-159 cells were incubated with biotinylated ERX-11 or biotinylated ERX-41 and then subject to a streptavidin column. Elutants were then evaluated for LIPA pulldown by western blotting. (FIG. 39J) Dose response curve to increasing concentrations of ERX-41 in described SUM-159 cells. (FIGS. 39K-M) Effect of vehicle or 1 μM ERX-41 on induction of UPR genes at the protein level (FIG. 39K) or RNA level (FIGS. 39L-M). […]

Data set [2] can be described thus: Tolerability of ERX-41 in mice. Type of data set: in vivo. Particulars: daily oral or intraperitoneal, up to 200 mg/kg. Here is the method: Additionally, ERX-41 was detectable within 1.5 h in established subcutaneous MDA-MB-231 xenograft tumors after oral or intraperitoneal administration (FIG. 35A). […] ERX-41 decreased tumor growth, as shown by extirpated tumor sizes at the end of study (FIG. 35C and FIG. 35E). […] The inventors validated the activity of ERX-41 in four distinct TNBC PDXs established in the mammary fat pad (FIGS. 35I-P).

The subject of data set [3] is pancreatic cancer MiaPaca cells. Kind of data set: ER stress in pancreatic cancer cells by electron microscopy. Type of data set: cell-based. The text has this:
The basal level of expression of endoplasmic reticulum stress and unfolded protein response correlates with TK41 activity (FIG. 28). Modulation of the level of these stress proteins affects the activity of TK41. Thus, the basal level of expression of endoplasmic reticulum stress and unfolded protein response proteins may serve as a biomarker to predict response to TK41. […] Without wishing to be bound by any particular theory, the mechanism of action of TK41 may operate comprise targeting either ER or TLX and inducing endoplasmic reticulum stress, subsequent apoptosis, and blocking autophagic fusion (FIG. 30).

For the compound `CC(C)COc1cc(C(=O)Nc2ccc(C(=O)N[C@H]3CC[C@H](C)CC3)cc2OCC(C)C)ccc1NC(=O)c1ccc([N+](=O)[O-])c(OCCO)c1` [TK41], in the data set with tumor growth (animal studies), the “side effects or toxicity” value is on record as “no apparent side effects or toxicity” and the tumor growth inhibition entry was “outstanding tumor growth inhibition”. For the same compound, the oral availability result in the data set on tumor growth (mouse, in vivo, po) was “orally available”. Besides, the “sensitivity after reconstitution of H274Y MT-LIPA” value in data set [1] (KO+H274Y) is given as “restored sensitivity”. In data set [1] (SUM159, KO+WT (WT-LIPA reconstituted)), this compound had a concentration for half-maximal inhibition (IC50) of 250 nM. The tolerability result in data set [2] is listed as “well tolerated”. Further, the “induction of endoplasmic reticulum stress in MiaPaca” value in data set [3] is given as “Endoplasmic reticulum stress was also induced”.
